Experimental data published in ChEMBL document CHEMBL1131149, “Acetylcholinesterase noncovalent inhibitors based on a polyamine backbone for potential use against Alzheimer's disease” (J Med Chem, 1998).

Assays:
Acetylcholinesterase [1] = molecular target: T1, Acetylcholinesterase (Homo sapiens, UniProt P22303)
Description: Inhibition of acetylcholinesterase (AChE) of human erythrocytes

Cholinesterase = Cholinesterase (Homo sapiens, UniProt P06276)
Description: Inhibition of Butyrylcholinesterase (BChE) of human erythrocytes [-log IC50 (uM)]

Acetylcholinesterase [2] = molecular target: T1, Acetylcholinesterase; remark: listed apart in the source
Description: Inhibition constant determined against Acetylcholinesterase (AChE) receptor.

Chain of Cholinesterase (P06276 whole entry): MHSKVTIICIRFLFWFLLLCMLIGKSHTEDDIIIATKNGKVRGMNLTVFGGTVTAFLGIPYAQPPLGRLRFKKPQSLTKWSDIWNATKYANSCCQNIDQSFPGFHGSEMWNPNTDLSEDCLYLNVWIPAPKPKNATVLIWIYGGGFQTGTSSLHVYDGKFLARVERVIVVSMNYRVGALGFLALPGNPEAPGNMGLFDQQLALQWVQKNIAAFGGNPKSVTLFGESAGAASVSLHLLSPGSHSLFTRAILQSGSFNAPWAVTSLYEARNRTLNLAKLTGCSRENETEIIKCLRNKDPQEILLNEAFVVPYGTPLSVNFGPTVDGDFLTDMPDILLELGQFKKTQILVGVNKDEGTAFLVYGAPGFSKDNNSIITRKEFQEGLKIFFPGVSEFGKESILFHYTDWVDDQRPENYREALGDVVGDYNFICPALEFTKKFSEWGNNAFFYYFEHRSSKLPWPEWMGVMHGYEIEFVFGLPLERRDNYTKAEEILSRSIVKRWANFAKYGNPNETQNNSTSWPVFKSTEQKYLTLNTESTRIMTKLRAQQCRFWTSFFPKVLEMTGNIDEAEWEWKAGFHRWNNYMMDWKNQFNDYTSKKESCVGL
T1 sequence (P22303 whole entry): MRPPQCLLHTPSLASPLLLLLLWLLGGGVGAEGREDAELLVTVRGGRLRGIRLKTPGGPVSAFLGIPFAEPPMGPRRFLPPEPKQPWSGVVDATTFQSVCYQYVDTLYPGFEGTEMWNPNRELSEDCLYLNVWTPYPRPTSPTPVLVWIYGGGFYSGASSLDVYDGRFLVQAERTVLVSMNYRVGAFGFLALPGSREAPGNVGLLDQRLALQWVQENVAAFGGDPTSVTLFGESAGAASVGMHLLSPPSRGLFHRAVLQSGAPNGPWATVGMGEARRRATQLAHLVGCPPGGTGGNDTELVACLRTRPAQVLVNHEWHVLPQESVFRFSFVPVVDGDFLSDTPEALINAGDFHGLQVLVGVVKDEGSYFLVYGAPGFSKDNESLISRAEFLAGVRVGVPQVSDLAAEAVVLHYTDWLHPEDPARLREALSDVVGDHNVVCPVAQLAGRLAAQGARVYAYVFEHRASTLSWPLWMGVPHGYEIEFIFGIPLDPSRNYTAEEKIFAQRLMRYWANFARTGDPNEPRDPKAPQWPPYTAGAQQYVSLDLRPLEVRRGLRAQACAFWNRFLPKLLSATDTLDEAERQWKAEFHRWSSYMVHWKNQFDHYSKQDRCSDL

Molecule NCCCCCCNCCSSCCNCCCCCCN has an IC50 (Acetylcholinesterase [1]) of 501 µM and an IC50 (Cholinesterase) of 646 µM.
COc1ccccc1CNCCCCCC(=O)N(C)CCCCCCCCN(C)C(=O)CCCCCNCc1ccccc1OC gave an IC50 (Acetylcholinesterase [1]) of 0.309 µM and an IC50 (Cholinesterase) of 6.03 µM.
COc1ccccc1CNCCCCCCNCCCCCNCCCCCCNCc1ccccc1OC showed an IC50 (Acetylcholinesterase [1]) of 7.24 µM and an IC50 (Cholinesterase) of 8.71 µM.
With COc1ccccc1CNCCCCCC(=O)NCCCCCCCCNC(=O)CCCCCNCc1ccccc1OC the IC50 (Acetylcholinesterase [1]) was 1.86 µM and the IC50 (Cholinesterase) was 11.5 µM.
COc1ccccc1CNCCCCCCNCCCCCCNCCCCCCNCc1ccccc1OC showed an IC50 (Acetylcholinesterase [1]) of 6.46 µM and an IC50 (Cholinesterase) of 1.38 µM.
For COc1ccccc1CNCCCCCCNCCCCCCCNCCCCCCNCc1ccccc1OC, the IC50 (Cholinesterase) was 3.72 µM.
COc1ccccc1CNCCCCCCNCCSSCCNCCCCCCNCc1ccccc1OC [BENEXTRAMINE] gave an IC50 (Acetylcholinesterase [1]) of 7.24 µM and an IC50 (Cholinesterase) of 6.17 µM.
For COc1ccccc1CN(C)CCCCCC(=O)N(C)CCCCCCCCN(C)C(=O)CCCCCN(C)Cc1ccccc1OC [CAPROCTAMINE], the IC50 (Acetylcholinesterase [1]) was 0.17 µM, the IC50 (Cholinesterase) was 11.7 µM and the Ki (Acetylcholinesterase [2]) was 0.000104 µM.
Molecule COc1ccccc1CNCCCCCCNCCCCCCCCNCCCCCCNCc1ccccc1OC [METHOCTRAMINE] has an IC50 (Cholinesterase) of 0.977 µM.
